Drawing on patent US20240306642A1, “Herbicidal Compositions” (SYNGENTA CROP PROTECTION AG, priority 2021, published 2024), this text covers Observed for five compounds.

Common to all, as to format: in vivo
For assay [1], the system named is Lolium multiflorum (LOLMU). The assay can be described thus: Post-emergence efficacy, Lolium multiflorum. The settings on record: 15DAA. The text has this:
(§1) When active ingredients are combined, the activity to be expected (E) for any given active ingredient combination obeys the so-called Colby Formula and can be calculated as follows (Colby, S. R., Calculating synergistic and antagonistic responses of herbicide combination, Weeds, Vol. 15, pages 20-22; 1967): • ppm =milligrams of active ingredient (a.i.) per litre • X=% action by first active ingredient using p ppm of the active ingredient • Y=% action by second active ingredient using q ppm of the active ingredient.
(§2) According to Colby, the expected action of active ingredients A+B using p+q ppm of active ingredient is represented by the following formula: […]
(§3) If the action actually observed (O) is greater than the expected action E then the action of the combination is super-additive, i.e. there is a synergistic effect. In mathematical terms, synergism corresponds to a positive value for the difference of (O-E). In the case of purely complementary addition of activities (expected activity), said difference (O-E) is zero. A negative value of said difference (O-E) signals a loss of activity compared to the expected activity.
(§4) The efficacy of various compositions of the present invention were tested against plants including the following species: Echinochloa crus-gali (ECHCG), Lolium multiflorum(LOLMU), Setaria faberi (SETFA) and Digitaria insularis (TRCIN). The compositions are applied post-emergence, and the tests evaluated at certain days-after-application (DAA) as indicated. The tests were evaluated (100=total damage to plant; 0=no damage to plant), and the results are shown below in Tables B1 to B4.

In assay [2] the test system is Echinochloa crus-gali (ECHCG). The assay can be described thus: Post-emergence efficacy, Echinochloa crus-gali. The conditions noted are these: 16DAA.
From the text: as §1, §2, §3, §4

Assay [3] has as its system Digitaria insularis (TRCIN). As to the kind of experiment: Post-emergence efficacy, Digitaria insularis. The conditions noted are these: 13DAA.
From the text: as §1, §2, §3, §4

Assay [4] relates to Setaria faberi (SETFA). The assay can be described thus: Post-emergence efficacy, Setaria faberi. The settings on record: 15DAA, rate 3 g/ha, 100=total damage to plant, 0=no damage.
From the text: as §1, §2
If the action actually observed (O) is greater than the expected action E then the action of the combination is super-additive, i.e. there is a synergistic effect. […]
as §4

The mark [5] stands for this setting: rate 1.88 g/ha, 100=total damage, 0=no damage.

In the case of `CCCCOC(=O)[C@@H](C)Oc1ccc(Oc2ccc(C(F)(F)F)cn2)cc1` [Formula B4a, fluazifop-P-butyl], the Observed in assay [1] (rate 8 g/ha) stood at 68.
As to `CC#Cc1ccc(C2=C(OC(=O)OC)C3CCC(C3)C2=O)c(OC)c1` (stereo not shown) [Ic], the Observed in assay [2] (rate 3.125 g/ha, 100=total damage, 0=no damage) is given as 30; in assay [2] (rate 6.25 g/ha) it was 88; in assay [1] (rate 6.25 g/ha, 100=total damage, 0=no damage), 44; in assay [1] (rate 12.5 g/ha), 59; in assay [3] (setting [5]) it was 48.
`CCc1cc(C)cc(CC)c1-c1c(OC(=O)C(C)(C)C)n2n(c1=O)CCOCC2` [Formula B6, pinoxaden]: the Observed turned out to be 0 in assay [3] (rate 0.94 g/ha) and 20 in assay [3] (setting [5]).
Consider `CCSC(C)CC1CC(=O)C(/C(CC)=N/OC/C=C/Cl)=C(O)C1` (stereo not shown) [Formula B1, clethodim], for which the Observed in assay [4] is 25.
In the case of `COC(=O)[C@@H](C)Oc1ccc(Oc2ncc(C(F)(F)F)cc2Cl)cc1` [Formula B5a, haloxyfop-P-methyl], the Observed in assay [2] (rate 8 g/ha) is given as 13.
